According to patent publication US4742049A, “Semisynthetic erythromycin antibiotics” (Abbott Laboratories, priority 1986, dated 1988):
Values after ≈ are worked out from the molar mass of the structure shown. Where two headings read alike, the source gives them in different places.

Key:
[1] = test system: Pseudomonas cepacia; assay: antimicrobial spectrum, agar dilution MIC; assay type: cell-based; settings: Burkholderia cepacia, strain 2961; BHI agar, 20-24 hours; read-out: MIC
Description: Erythromycin A was used for this purpose.
After incubation, each disk is read.

[2] = test system: Micrococcus luteus; assay: antimicrobial spectrum, agar dilution MIC; assay type: cell-based; settings: 20-24 hours
[3] = test system: Klebsiella pneumoniae; assay: antimicrobial spectrum, agar dilution MIC; assay type: cell-based; settings: strain 8045, BHI agar, 20-24 hours
[4] = test system: Staph. epidermidis; assay: antimicrobial spectrum, agar dilution MIC; assay type: cell-based; settings: Staphylococcus epidermidis
Description: (§1) Twelve petri dishes containing successive aqueous dilutions of the test compound mixed with 10 ml of sterilized Brain Heart Infusion agar (Difco 0418-01-5) are prepared. Each plate is inoculated with 1:100 (or 1:10 for slow-growing strains, primarily Micrococcus and Streptococcus) dilutions of up to 32 different microorganisms, using a Steers replicator block. The inoculated plates are incubated at 35°-37° C. for 20-24 hours. In addition, a control plate, using BHI agar containing no test compound, is prepared and incubated at the beginning and end of each test.
(§2) An additional plate containing a compound having known susceptibility patterns for the organisms being tested and belonging to the same antibiotic class as the test compound is also prepared and incubated as a further control, as well as to provide test-to-test comparability.
(§3) After incubation, each disk is read. The MIC is defined as the lowest concentration of drug yielding no growth, a slight haze, or sparsely isolated colonies on the inoculum spot as compared to the growth control.

[5] = test system: Pseudomonas aeruginosa; assay: antimicrobial spectrum, agar dilution MIC; assay type: cell-based; settings: Pseudomonas aeruginosa, BHI agar, 20-24 hours
Description: as §1, §2, §3

[6] = test system: Providencia stuartii; assay: antimicrobial spectrum, agar dilution MIC; assay type: cell-based; settings: strain CMX 640, BHI agar, 20-24 hours
Description: as §1, §2, §3

[7] = test system: Strep. faecium; assay: antimicrobial spectrum, agar dilution MIC; assay type: cell-based; settings: Enterococcus faecium
Description: as §1, §2, §3

[8] = test system: Staph. aureus; assay: antimicrobial spectrum, agar dilution MIC; assay type: cell-based; settings: Staphylococcus aureus, BHI agar, 20-24 hours
Description: as §1, §2, §3

[9] = test system: Strep. pyogenes; assay: antimicrobial spectrum, agar dilution MIC; assay type: cell-based; settings: Streptococcus pyogenes, BHI agar, 20-24 hours
Description: as §1, §2, §3

[10] = test system: Strep. agalactiae; assay: antimicrobial spectrum, agar dilution MIC; assay type: cell-based; settings: Streptococcus agalactiae, strain CMX 508; BHI agar, 20-24 hours
Description: as §1, §2, §3

[11] = test system: Strep. bovis; assay: antimicrobial spectrum, agar dilution MIC; assay type: cell-based; settings: Streptococcus equinus, strain A5169; BHI agar, 20-24 hours
Description: as §1, §2, §3

[12] = test system: Acinetobacter SP; assay: antimicrobial spectrum, agar dilution MIC; assay type: cell-based; settings: strain CMX 669, BHI agar, 20-24 hours
[13] = test system: gut contractions (stomach, duodenum, jejunum); settings: dog, in vivo, iv, 4 mg/kg
Description: Compounds of this invention have been tested for gastrointestinal stimulating activity in a dog model at 4 mg/kg intravenously. Contractions in the gut were recorded with surgically implanted strain gauges. […] Ratios were calculated for the stomach, duodenum and jejunum, and a final arithmetic mean index was calculated and reported in Table 1.

[14] = test system: Lactobacillus Casei; assay: antimicrobial spectrum, agar dilution MIC; assay type: cell-based; settings: Lacticaseibacillus casei, ATCC7469, strain ATCC 7469; BHI agar, 20-24 hours
[15] = test system: Ent. aerogenes; assay: antimicrobial spectrum, agar dilution MIC; assay type: cell-based; settings: Klebsiella aerogenes, BHI agar, 20-24 hours
[16] = test system: E. coli; assay: antimicrobial spectrum, agar dilution MIC; assay type: cell-based; settings: Escherichia coli, BHI agar, 20-24 hours
[17] = strain 3519 RARI, BHI agar, 20-24 hours

For `CC[C@H]1OC(=O)[C@H](C)[C@@H](O[C@H]2C[C@@](C)(OC)[C@@H](O)[C@H](C)O2)[C@H](C)[C@@H](O[C@@H]2O[C@H](C)C[C@H](N(C)C)[C@H]2O)[C@](C)(OC)C[C@@H](C)C(=O)[C@H](C)[C@H]2N(C)C(=O)O[C@]12C` [Example 4, 11-deoxy-6-O-methyl erythromycin A 11,12-(N-methyl)cyclic carbamate], which MIC [1] is on record?
The MIC was 100 µg/mL (≈ 127 µM).

And the MIC ([2]; strain 4698, BHI agar)?
Its MIC is 0.05 µg/mL (≈ 0.0635 µM).

What about the MIC ([2]; strain 9341, BHI agar) of the same compound?
Its MIC is 0.01 µg/mL (≈ 0.0127 µM).

What about the MIC [3] of the same compound?
Its MIC is 50 µg/mL (≈ 63.5 µM).

What about the MIC ([4]; strain 3519, BHI agar, 20-24 hours) of the same compound?
Its MIC is 0.2 µg/mL (≈ 0.254 µM).

And the MIC [4, 17]?
Its MIC is 0.2 µg/mL (≈ 0.254 µM).

What about the MIC ([5]; strain 5007) of the same compound?
Its MIC is 100 µg/mL (≈ 127 µM).

And the MIC ([5]; strain BMH10)?
Its MIC is 50 µg/mL (≈ 63.5 µM).

And the MIC ([5]; strain K799/61, read-out: MIC)?
The MIC was 0.78 µg/mL (≈ 0.991 µM).

What about the MIC ([5]; strain K799/WT) of the same compound?
Its MIC is 100 µg/mL (≈ 127 µM).

What about the MIC [6] of the same compound?
Its MIC is > 100 µg/mL.

What about the MIC ([7]; ATCC8043, strain ATCC 8043, BHI agar, 20-24 hours) of the same compound?
Its MIC is 0.05 µg/mL (≈ 0.0635 µM).

What about the MIC ([8]; ATCC6538P, strain ATCC 6538P) of the same compound?
The MIC was 0.1 µg/mL (≈ 0.127 µM).

And the MIC ([8]; strain 45)?
Its MIC is 0.1 µg/mL (≈ 0.127 µM).

What about the MIC ([8]; strain 45 RAR 2) of the same compound?
Its MIC is 0.2 µg/mL (≈ 0.254 µM).

And the MIC ([8]; strain A5177)?
The MIC was 0.39 µg/mL (≈ 0.496 µM).

And the MIC ([8]; strain CMX 686B)?
The MIC was 0.1 µg/mL (≈ 0.127 µM).

And the MIC ([9]; strain 930)?
Its MIC is > 100 µg/mL.

And the MIC ([9]; strain EES61)?
Its MIC is 0.01 µg/mL (≈ 0.0127 µM).

What about the MIC [10] of the same compound?
Its MIC is 0.02 µg/mL (≈ 0.0254 µM).

And the MIC [11]?
Its MIC is 0.02 µg/mL (≈ 0.0254 µM).

What about the MIC [12] of the same compound?
The MIC was 12.5 µg/mL (≈ 15.9 µM).

What about the “Gastrointestinal Motility Index” value [13] of the same compound?
Its value is 1.27.

What about the MIC [14] of the same compound?
The MIC was 0.01 µg/mL (≈ 0.0127 µM).

And the MIC ([15]; ATCC10348, strain ATCC 10348)?
Its MIC is 50 µg/mL (≈ 63.5 µM).

What about the MIC ([16]; strain DC-2) of the same compound?
Its MIC is 25 µg/mL (≈ 31.8 µM).

And the MIC ([16]; strain H560)?
Its MIC is 12.5 µg/mL (≈ 15.9 µM).

And the MIC ([16]; strain JUHL)?
Its MIC is 25 µg/mL (≈ 31.8 µM).

What about the MIC ([16]; strain KNK 437) of the same compound?
The MIC was 50 µg/mL (≈ 63.5 µM).

And the MIC ([16]; strain SS)?
Its MIC is 0.1 µg/mL (≈ 0.127 µM).

How did the MIC [1] turn out when `CC[C@H]1OC(=O)[C@H](C)[C@@H](O[C@H]2C[C@@](C)(OC)[C@@H](O)[C@H](C)O2)[C@H](C)[C@@H](O[C@@H]2O[C@H](C)C[C@H](N(C)C)[C@H]2O)[C@](C)(OC)C[C@@H](C)C(=O)[C@H](C)[C@H]2N(Cc3ccccc3)C(=O)O[C@]12C` [Example 3, 11-deoxy-6-O-methyl erythromycin A 11,12-(N-benzyl)cyclic carbamate] was run?
Its MIC is 50 µg/mL (≈ 57.9 µM).

And the MIC ([2]; strain 9341, BHI agar)?
The MIC was 0.05 µg/mL (≈ 0.0579 µM).

What about the MIC [3] of the same compound?
The MIC was 25 µg/mL (≈ 29 µM).

And the MIC [4]?
Its MIC is 0.2 µg/mL (≈ 0.232 µM).

And the MIC [4, 17]?
The MIC was 0.2 µg/mL (≈ 0.232 µM).

And the MIC ([5]; strain 5007)?
Its MIC is > 100 µg/mL.

What about the MIC ([5]; strain BMH10) of the same compound?
Its MIC is 25 µg/mL (≈ 29 µM).

What about the MIC ([5]; strain K799/61) of the same compound?
The MIC was 3.1 µg/mL (≈ 3.59 µM).

What about the MIC ([5]; strain K799/WT) of the same compound?
Its MIC is > 100 µg/mL.

What about the MIC [6] of the same compound?
The MIC was > 100 µg/mL.

What about the MIC ([7]; ATCC8043) of the same compound?
The MIC was 0.1 µg/mL (≈ 0.116 µM).

What about the MIC ([8]; ATCC6538P, strain ATCC 6538P) of the same compound?
The MIC was 0.39 µg/mL (≈ 0.452 µM).

What about the MIC ([8]; strain 45) of the same compound?
Its MIC is 0.1 µg/mL (≈ 0.116 µM).

What about the MIC ([8]; strain 45 RAR 2) of the same compound?
Its MIC is 0.39 µg/mL (≈ 0.452 µM).

And the MIC ([8]; strain A5177)?
Its MIC is 0.78 µg/mL (≈ 0.904 µM).

And the MIC ([8]; strain CMX 686B)?
The MIC was 0.39 µg/mL (≈ 0.452 µM).

What about the MIC ([9]; strain 930) of the same compound?
Its MIC is 100 µg/mL (≈ 116 µM).

And the MIC ([9]; strain EES61)?
Its MIC is 0.02 µg/mL (≈ 0.0232 µM).

And the MIC [10]?
Its MIC is 0.02 µg/mL (≈ 0.0232 µM).

And the MIC [11]?
Its MIC is 0.02 µg/mL (≈ 0.0232 µM).

What about the MIC [12] of the same compound?
Its MIC is 50 µg/mL (≈ 57.9 µM).

What about the MIC [14] of the same compound?
Its MIC is 0.05 µg/mL (≈ 0.0579 µM).

What about the MIC ([15]; ATCC13048, strain ATCC 13048, read-out: MIC) of the same compound?
The MIC was 50 µg/mL (≈ 57.9 µM).

What about the MIC ([16]; strain DC-2) of the same compound?
The MIC was 25 µg/mL (≈ 29 µM).

And the MIC ([16]; strain H560)?
The MIC was 6.2 µg/mL (≈ 7.18 µM).

And the MIC ([16]; strain JUHL)?
The MIC was 25 µg/mL (≈ 29 µM).

What about the MIC ([16]; strain KNK 437) of the same compound?
The MIC was 25 µg/mL (≈ 29 µM).

What about the MIC ([16]; strain SS) of the same compound?
The MIC was 0.39 µg/mL (≈ 0.452 µM).
